Results reported in PubChem BioAssay AID2060511 (Molecular Pharmacology Branch, DTP, NCI, 2025).

Tested on: 422866-222-R5-J1-PDC spheroids with HUVEC/MSC, viability
Assay: Anticancer human tumor 422866-222-R5-J1-PDC patient-derived pancreatic adenocarcinoma cell line growth inhibition [GQUAD]
Conditions: for IC50: curve of first compound; for viability, T/C: stronger effect = lower value
Summary of the method: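 Multi-cell-type spheroids of tumor cells with HUVEC and mesenchymal stem cells, treated with drug combinations. Concentrations descend in half-log steps from near clinical Cmax, or from 10 microM where Cmax is unknown; viability read-out.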

[1] = second compound 0.0316 µM, first compound 0.0316 µM
[2] = second compound 0.0316 µM, first compound 0.1 µM
[3] = second compound 0.0316 µM, first compound 0.316 µM
[4] = second compound 0.0316 µM, first compound 1 µM
[5] = second compound 0.0316 µM, first compound 3.16 µM
[6] = second compound 0.0316 µM, first compound 10 µM
[7] = second compound 0.1 µM, first compound 0.0316 µM
[8] = second compound 0.1 µM, first compound 0.1 µM
[9] = second compound 0.1 µM, first compound 0.316 µM
[10] = second compound 0.1 µM, first compound 1 µM
[11] = second compound 0.1 µM, first compound 3.16 µM
[12] = second compound 0.1 µM, first compound 10 µM
[13] = second compound 0.316 µM, first compound 0.0316 µM
[14] = second compound 0.316 µM, first compound 0.1 µM
[15] = second compound 0.316 µM, first compound 0.316 µM
[16] = second compound 0.316 µM, first compound 1 µM
[17] = second compound 0.316 µM, first compound 3.16 µM
[18] = second compound 0.316 µM, first compound 10 µM
[19] = second compound 1 µM, first compound 0.0316 µM
[20] = second compound 1 µM, first compound 0.1 µM
[21] = second compound 1 µM, first compound 0.316 µM
[22] = second compound 1 µM, first compound 1 µM
[23] = second compound 1 µM, first compound 3.16 µM
[24] = second compound 1 µM, first compound 10 µM
[25] = second compound 3.16 µM, first compound 0.0316 µM
[26] = second compound 3.16 µM, first compound 0.1 µM
[27] = second compound 3.16 µM, first compound 0.316 µM
[28] = second compound 3.16 µM, first compound 1 µM
[29] = second compound 3.16 µM, first compound 3.16 µM
[30] = second compound 3.16 µM, first compound 10 µM
[31] = second compound 10 µM, first compound 0.0316 µM
[32] = second compound 10 µM, first compound 0.1 µM
[33] = second compound 10 µM, first compound 0.316 µM
[34] = second compound 10 µM, first compound 1 µM
[35] = second compound 10 µM, first compound 3.16 µM
[36] = second compound 10 µM, first compound 10 µM
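Further: spheroids exposed to compounds for seven days before reading.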
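Wherever viability, T/C is given: percent viability relative to DMSO vehicle control taken as 100%.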

## CC(=O)O[C@H]1C(=O)[C@@]2(C)[C@H]([C@H](OC(=O)c3ccccc3)[C@]3(O)C[C@H](OC(=O)[C@H](O)[C@@H](NC(=O)c4ccccc4)c4ccccc4)C(C)=C1C3(C)C)[C@]1(OC(C)=O)CO[C@@H]1C[C@@H]2O + CN(C)c1ccc(Nc2c3ccc(NC(=O)CCN4CCCC4)cc3nc3cc(NC(=O)CCN4CCCC4)ccc23)cc1
Second compound 0.0316 µM
  IC50: > 10000 nM
Second compound 0.1 µM
  IC50: > 10000 nM
Second compound 0.316 µM
  IC50: > 10000 nM
Second compound 1 µM
  IC50: > 10000 nM
Second compound 3.16 µM
  IC50: > 10000 nM
Second compound 10 µM
  IC50: > 10000 nM
[1]
  viability, T/C: 78.2%
[2]
  viability, T/C: 72.8%
[3]
  viability, T/C: 63.9%
[4]
  viability, T/C: 66.5%
[5]
  viability, T/C: 75.6%
[6]
  viability, T/C: 86%
[7]
  viability, T/C: 88%
[8]
  viability, T/C: 60.7%
[9]
  viability, T/C: 65.1%
[10]
  viability, T/C: 67.6%
[11]
  viability, T/C: 74.3%
[12]
  viability, T/C: 79.7%
[13]
  viability, T/C: 87.6%
[14]
  viability, T/C: 63.1%
[15]
  viability, T/C: 51.3%
[16]
  viability, T/C: 72.4%
[17]
  viability, T/C: 77.2%
[18]
  viability, T/C: 81.4%
[19]
  viability, T/C: 59.5%
[20]
  viability, T/C: 60.5%
[21]
  viability, T/C: 74.6%
[22]
  viability, T/C: 65.9%
[23]
  viability, T/C: 71%
[24]
  viability, T/C: 85.6%
[25]
  viability, T/C: 62.9%
[26]
  viability, T/C: 68.9%
[27]
  viability, T/C: 68.1%
[28]
  viability, T/C: 65.2%
[29]
  viability, T/C: 76.3%
[30]
  viability, T/C: 87.6%
[31]
  viability, T/C: 63.8%
[32]
  viability, T/C: 67.1%
[33]
  viability, T/C: 76.5%
[34]
  viability, T/C: 79.9%
[35]
  viability, T/C: 80.3%
[36]
  viability, T/C: 92.4%

## C=CC(=O)N1CCN(c2nc(=O)n(-c3c(C)ccnc3C(C)C)c3nc(-c4c(O)cccc4F)c(F)cc23)C(C)C1 (stereo unspecified) + CN(C)c1ccc(Nc2c3ccc(NC(=O)CCN4CCCC4)cc3nc3cc(NC(=O)CCN4CCCC4)ccc23)cc1
Second compound 0.0316 µM
  IC50: < 31.6 nM
Second compound 0.1 µM
  IC50: < 31.6 nM
Second compound 0.316 µM
  IC50: < 31.6 nM
Second compound 1 µM
  IC50: < 31.6 nM
Second compound 3.16 µM
  IC50: < 31.6 nM
Second compound 10 µM
  IC50: < 31.6 nM
[1]
  viability, T/C: 39.3%
[2]
  viability, T/C: 32.5%
[3]
  viability, T/C: 29.6%
[4]
  viability, T/C: 25.2%
[5]
  viability, T/C: 26.4%
[6]
  viability, T/C: 30%
[7]
  viability, T/C: 37.9%
[8]
  viability, T/C: 29.4%
[9]
  viability, T/C: 26.6%
[10]
  viability, T/C: 22.7%
[11]
  viability, T/C: 27.3%
[12]
  viability, T/C: 26.4%
[13]
  viability, T/C: 41.9%
[14]
  viability, T/C: 25.2%
[15]
  viability, T/C: 29.9%
[16]
  viability, T/C: 25.7%
[17]
  viability, T/C: 30.7%
[18]
  viability, T/C: 28.7%
[19]
  viability, T/C: 27.8%
[20]
  viability, T/C: 27.9%
[21]
  viability, T/C: 25.1%
[22]
  viability, T/C: 23.9%
[23]
  viability, T/C: 24.7%
[24]
  viability, T/C: 28%
[25]
  viability, T/C: 31.2%
[26]
  viability, T/C: 25.5%
[27]
  viability, T/C: 24.3%
[28]
  viability, T/C: 25.3%
[29]
  viability, T/C: 25%
[30]
  viability, T/C: 28.3%
[31]
  viability, T/C: 29.5%
[32]
  viability, T/C: 27.3%
[33]
  viability, T/C: 25.7%
[34]
  viability, T/C: 29%
[35]
  viability, T/C: 28.8%
[36]
  viability, T/C: 29.1%

## CCc1c2c(nc3ccc(O)cc13)-c1cc3c(c(=O)n1C2)COC(=O)[C@]3(O)CC + CN(C)c1ccc(Nc2c3ccc(NC(=O)CCN4CCCC4)cc3nc3cc(NC(=O)CCN4CCCC4)ccc23)cc1
Second compound 0.0316 µM
  IC50: 6.8 nM
Second compound 0.1 µM
  IC50: 49 nM
Second compound 0.316 µM
  IC50: 2.86 nM
Second compound 1 µM
  IC50: 2.41 nM
Second compound 3.16 µM
  IC50: 110 nM
Second compound 10 µM
  IC50: > 316 nM
Second compound 0.0316 µM, first compound 0.000999 µM
  viability, T/C: 64.9%
Second compound 0.0316 µM, first compound 0.00316 µM
  viability, T/C: 54.1%
Second compound 0.0316 µM, first compound 0.00999 µM
  viability, T/C: 46.6%
[1]
  viability, T/C: 46.7%
Second compound 0.0316 µM, first compound 0.0999 µM
  viability, T/C: 48%
[3]
  viability, T/C: 47.1%
Second compound 0.1 µM, first compound 0.000999 µM
  viability, T/C: 63.6%
Second compound 0.1 µM, first compound 0.00316 µM
  viability, T/C: 46.9%
Second compound 0.1 µM, first compound 0.00999 µM
  viability, T/C: 46.7%
[7]
  viability, T/C: 57.1%
Second compound 0.1 µM, first compound 0.0999 µM
  viability, T/C: 57.8%
[9]
  viability, T/C: 39.2%
Second compound 0.316 µM, first compound 0.000999 µM
  viability, T/C: 77.5%
Second compound 0.316 µM, first compound 0.00316 µM
  viability, T/C: 47.2%
Second compound 0.316 µM, first compound 0.00999 µM
  viability, T/C: 46.4%
[13]
  viability, T/C: 55.1%
Second compound 0.316 µM, first compound 0.0999 µM
  viability, T/C: 50.5%
[15]
  viability, T/C: 37.3%
Second compound 1 µM, first compound 0.000999 µM
  viability, T/C: 54%
Second compound 1 µM, first compound 0.00316 µM
  viability, T/C: 43.4%
Second compound 1 µM, first compound 0.00999 µM
  viability, T/C: 45.2%
[19]
  viability, T/C: 57.1%
Second compound 1 µM, first compound 0.0999 µM
  viability, T/C: 46.8%
[21]
  viability, T/C: 40.5%
Second compound 3.16 µM, first compound 0.000999 µM
  viability, T/C: 58.6%
Second compound 3.16 µM, first compound 0.00316 µM
  viability, T/C: 54.3%
Second compound 3.16 µM, first compound 0.00999 µM
  viability, T/C: 40.6%
[25]
  viability, T/C: 48.5%
Second compound 3.16 µM, first compound 0.0999 µM
  viability, T/C: 63.6%
[27]
  viability, T/C: 43.9%
Second compound 10 µM, first compound 0.000999 µM
  viability, T/C: 58.4%
Second compound 10 µM, first compound 0.00316 µM
  viability, T/C: 49.7%
Second compound 10 µM, first compound 0.00999 µM
  viability, T/C: 58.3%
[31]
  viability, T/C: 50.8%
Second compound 10 µM, first compound 0.0999 µM
  viability, T/C: 64.5%
[33]
  viability, T/C: 41%
